The source of these data is publication PMC10310857 (Nature Communications, 2023).

“And” between values parts separate entries of the source, which are not always exact repeats. Identical values can stand only once. “Also recorded” adds a separate entry of the source.

Experiment [1] concerns F. graminearum strain Fg-1. The experiment is classed as cell-based.
The next experiment relates to R. solani. Set-up: species or system R. solani strain RS-1 on soybean. Conditions: in vivo.
In a further experiment the test system is GhMPK6. Set-up: species or system Gossypium hirsutum cv. Lvmian. Conditions: in vivo.
A further experiment concerns F. graminearum. Also on record: species or system F. graminearum strain Fg-1 on soybean. Conditions: in vivo.
The target of another experiment is BmCDA7 (Bombyx mori, UniProt H9JW44).
Chain of BmCDA7 (H9JW44 16-364): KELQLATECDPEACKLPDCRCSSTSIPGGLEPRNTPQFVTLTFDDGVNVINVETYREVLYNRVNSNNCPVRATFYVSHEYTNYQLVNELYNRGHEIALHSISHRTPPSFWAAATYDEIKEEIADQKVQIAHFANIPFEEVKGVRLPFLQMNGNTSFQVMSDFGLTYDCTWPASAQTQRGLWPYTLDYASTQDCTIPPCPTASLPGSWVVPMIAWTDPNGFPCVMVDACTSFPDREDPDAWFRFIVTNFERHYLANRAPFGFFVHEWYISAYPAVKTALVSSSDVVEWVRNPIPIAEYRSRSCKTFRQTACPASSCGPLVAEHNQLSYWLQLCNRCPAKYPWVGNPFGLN
The next experiment concerns GhRbohD. Set-up: species or system Gossypium hirsutum cv. Lvmian. Conditions: in vivo.
Another experiment relates to V. dahliae. Conditions: in vivo.
Experiment [2] deals with T1, VdPDA1 (Verticillium dahliae, UniProt G2X9U7). In words: biochemical.
Description: The enzymatic activity of recombinantly expressed proteins was assayed using a fluorogenic labeling method[29]. The reaction mixture consisted of 100 μL of 100 nM testing enzyme and 0.5 mM (GlcNAc)3 in a 50 mM Hepes (pH 7.5) buffer. After incubation for 10 min at 30 °C, free amine production was measured using fluorescamine labeling and quantified with a glucosamine standard. All measurements were carried out in triplicate.
The compounds were screened to identify the small molecules inhibiting VdPDA1 and Pst_13661 using a liquid-handling robot. The compounds were prepared in a 96-well plate containing one compound per well at 10 mM each in 100% DMSO (except for BHA, which was dissolved in ddH2O). The plates were first diluted to 5 mM. The compounds were screened at 100 μM in 2% DMSO in a final reaction volume of 100 μL, containing 100 nM enzyme and 0.5 mM (GlcNAc)3 in 50 mM Hepes (pH 7.5) buffer. Negative enzyme-free controls and positive controls with and without DMSO were prepared. The plates were incubated at 30 °C for 10 min. All measurements were carried out in triplicate.
For the determination of the inhibition constants Ki, three substrate (GlcNAc)3 concentrations (0.5, 0.2, and 0.1 mM) and varied inhibitor concentrations were used. The Ki values were determined using Dixon plots[56]. In Dixon plots, the value of lines intersection that converges above the x-axis is denoted as Ki. […]
In the next experiment the test system is F. oxysporum. Also on record: species or system F. oxysporum strain Fo-2 on soybean. Conditions: in vivo.
A further experiment deals with T. harzianum T27. It is filed as cell-based, Trichoderma harzianum.
Another experiment deals with R. solani strain RS-1. The experiment is classed as cell-based.
The test system of the next experiment is V. dahliae strain V991. The experiment is classed as cell-based, Verticillium dahliae.
The test system of a further experiment is F. oxysporum strain Fo-2. The experiment is classed as cell-based.
Experiment [3] relates to P. striiformis f. sp. tritici (strain CYR32). Also on record: species or system P. striiformis f. sp. tritici on wheat. Conditions: in vivo.
For the next experiment, the target named is Pst_13661 (Puccinia striiformis f. sp. tritici, UniProt A0A0L0V0Y3, T32S). It is filed as biochemical.
Experiment [4] deals with T1, VdPDA1. It is filed as biochemical.

Excerpt for BmCDA7: Effect o f BHA o n the activity of BmCDA7 from the insect Bombyx
mori. Bars in all graphs represent mean values, whiskers represent mean ± SEM, and black

By Ki is commonly meant the dissociation constant of the complex between target and ligand, obtained from inhibition or displacement. A low value points to higher affinity. For the molecule `O=C(NO)c1ccccc1` [Compound 1, benzohydroxamic acid], in experiment [1], the “Fungal growth (Fig. S3b), Mean” value is 4.15 and 4.13 and 4.08; the “Growth and morphology of F. graminearum” value is “normal morphology and developmental status; also recorded: does not affect the growth”. Moreover, in the experiment on R. solani, the “Fungal biomass of soybean hypocotyls” value was “significantly reduced fungal biomass” and the “Lesions on soybean hypocotyls” value is “fewer lesions”. In addition, the “GhMPK6 expression in cotton roots” value in the experiment on GhMPK6 is listed as “upregulated”. In the experiment with F. graminearum, the “Fungal biomass of soybean hypocotyls” value is “significantly reduced fungal biomass” and the “Lesions on soybean hypocotyls” value was “fewer lesions”. On BmCDA7, the “Activity of BmCDA7 (Fig. S4), Mean” value is 101.71 and 105.43; the “Inhibition of insect chitin deacetylases” value is given as “could not inhibit”. In the experiment with GhRbohD, the “GhRbohD expression in cotton roots” value is “upregulated”. Moreover, in the experiment with V. dahliae, the “Fungal biomass on cotton plants” value is “significantly reduced”; the “Fungal biomass on cotton plants (Fig. 3c) Mean” value is 0.5294 and 0.2725; the “Wilt symptoms of cotton plants” value was “did not exhibit wilt symptoms”. The Ki on VdPDA1 [2] was determined as 8.31 µM. Further, in the experiment with F. oxysporum, the “Fungal biomass of soybean hypocotyls” value was “significantly reduced fungal biomass”; the “Fungal biomass of soybean hypocotyls (Fig. 5h) Mean” value was 0.6738 and 0.6606 and 0.4822; the “Lesions on soybean hypocotyls” value was “fewer lesions”. For the same molecule, in the experiment with T. harzianum T27, the “Fungal growth (Fig. S3b), Mean” value was 3.65 and 3.63; the “Growth of Trichoderma harzianum” value is “does not affect the growth”. For the same molecule, in the experiment with R. solani strain RS-1, the “Fungal growth (Fig. S3b), Mean” value was 3.03 and 3.13; the “Growth and morphology of R. solani” value is “normal morphology and developmental status; also recorded: does not affect the growth”. In addition, in the experiment on V. dahliae strain V991, the “Colony morphology and hyphae growth of V. dahliae” value is listed as “not affected”; the “Fungal growth (Fig. S3b), Mean” value was 3.65 and 3.60 and 3.58. Further, in the experiment on F. oxysporum strain Fo-2, the “Fungal growth (Fig. S3b), Mean” value was 2.98 and 2.90 and 2.95; the “Growth and morphology of F. oxysporum” value was “normal morphology and developmental status; also recorded: does not affect the growth”. In addition, the “Disease indices after P. striiformis f. sp. tritici infection of wheat plants” value in experiment [3] was “greatly declined”.
Take `O=C(O)c1cccc(C(=O)O)n1` [DPA]: on Pst_13661, the “Fig. S1c enzyme activity, Exp1” value is 4.96; the “Fig. S1c enzyme activity, Exp2” value was found to be 8.16; the “Fig. S1c enzyme activity, Exp3” value is given as 14.56; the “Fig. S1c enzyme activity, Mean” value was determined as 9.23. Further, at VdPDA1 [4], the “Fig. S1d enzyme activity, Exp1” value is on record as 0.31; the “Fig. S1d enzyme activity, Exp2” value is listed as -0.24; the “Fig. S1d enzyme activity, Exp3” value was -0.41; the “Fig. S1d enzyme activity, Mean” value is reported as -0.11.
As for `[Ni+2]` [Ni2+], on Pst_13661, the “Fig. S1c enzyme activity, Exp1” value worked out at 49.78; the “Fig. S1c enzyme activity, Exp2” value was found to be 47.40; the “Fig. S1c enzyme activity, Exp3” value was 46.47; the “Fig. S1c enzyme activity, Mean” value is recorded as 47.88. For the same molecule, at VdPDA1 [4], the “Fig. S1d enzyme activity, Exp1” value is recorded as 36.44; the “Fig. S1d enzyme activity, Exp2” value was 38.96; the “Fig. S1d enzyme activity, Exp3” value was 38.03; the “Fig. S1d enzyme activity, Mean” value worked out at 37.81.
`[Zn+2]` [Zn2+]: at Pst_13661, the “Fig. S1c enzyme activity, Exp1” value amounted to 97.91; the “Fig. S1c enzyme activity, Exp2” value came out at 92.55; the “Fig. S1c enzyme activity, Exp3” value is 105.61; the “Fig. S1c enzyme activity, Mean” value was 98.69. Also, on VdPDA1 [4], the “Fig. S1d enzyme activity, Exp1” value was 76.18; the “Fig. S1d enzyme activity, Exp2” value is given as 78.11; the “Fig. S1d enzyme activity, Exp3” value came to 78.27; the “Fig. S1d enzyme activity, Mean” value is 77.52.
